Assays:
in vitro = format: cell-based; conditions: human; GS4.1 cells, Cell Titer 96 AQueous One Solution
Experimental: For cytotoxicity evaluation, GS4.1 cells were treated with compounds as described above and cellular viability was monitored using the Cell Titer 96 AQueous One Solution Cell Proliferation Assay (Promega). CC50 values were determined from the % cytotoxicity versus concentration data with Tecan Magellan software as described above.

HCV NS3-NS4A protease = target: T1, HCV NS3-NS4A protease (Hepatitis C virus genotype 1a, UniProt P27958); assay: HCV Protease Assay (SensoLyte 620 HCV Protease Assay kit); format: biochemical; conditions: 1.2 nM HCV NS3-NS4A protease, 60 min, room temperature
T1 construct: HCV NS3-NS4A protease, which was obtained according to Taremi et al; made in house
Experimental: Measurement of the inhibitory effect of compounds on HCV protease activity was performed with the SensoLyte™ 620 HCV Protease Assay kit from AnaSpec, Inc. (San Jose, Calif.) under conditions described by the supplier using 1.2 nM HCV NS3-NS4A protease, which was obtained according to Taremi et al. (Protein Science, 1998, 7, 2143-2149). The compounds were tested at a variety of concentrations in assay buffer containing a final DMSO concentration of 5%. Reactions were allowed to proceed for 60 min at room temperature and fluorescence measurements were recorded with a Tecan Infinity Spectrofluorimeter. The IC50 values were determined from the percent inhibition versus concentration data using a sigmoidal non-linear regression analysis based on four parameters with Tecan Magellan software.

[1] = test system: HCV Con1 subgenomic replicon in Huh-7 cells (GS4.1 cells); assay: HCV Replicon Assay (NS4A ELISA); format: cell-based; conditions: Hepatitis C virus, 72 hr
Experimental: Huh-7 cells containing HCV Con1 subgenomic replicon (GS4.1 cells) were grown in Dulbecco's Modified Eagle Medium (DMEM) supplemented with 10% fetal bovine serum (FBS), 2 mM L-glutamine, 110 mg/L sodium pyruvate, 1× non-essential amino acids, 100 U/mL penicillin-streptomycin, and 0.5 mg/mL G418 (Invitrogen). For dose-response testing, the cells were seeded in 96-well plates at 7.5×10^3 cells/well in a volume of 50 μL, and incubated at 37° C./5% CO2. Three hours after plating, 50 μL of ten 2-fold serial dilutions of compounds (highest concentration, 75 μM) were added, and cell cultures were incubated at 37° C./5% CO2 in the presence of 0.5% DMSO. Alternatively, compounds were tested at a single concentration of 15 μM. In all cases, Huh-7 cells lacking the HCV replicon served as negative control. The cells were incubated in the presence of compounds for 72 hr after which they were monitored for expression of the NS4A protein by enzyme-linked immunosorbent assay (ELISA). For this, the plates were then fixed for 1 min with acetone/methanol (1:1, v/v), washed twice with phosphate-buffered saline (PBS), 0.1% Tween 20, blocked for 1 hr at room temperature with TNE buffer containing 10% FBS and then incubated for 2 hr at 37° C. with the anti-NS4A mouse monoclonal antibody A-236 (ViroGen) diluted in the same buffer. After washing three times with PBS, 0.1% Tween 20, the cells were incubated 1 hr at 37° C. with anti-mouse immunoglobulin G-peroxidase conjugate in TNE, 10% FBS. After washing as described above, the reaction was developed with O-phenylenediamine (Zymed). The reaction was stopped after 30 min with 2 N H2SO4, and absorbance was read at 492 nm using Sunrise Tecan spectrophotometer. EC50 values were determined from the % inhibition versus concentration data using a sigmoidal non-linear regression analysis based on four parameters with Tecan Magellan software.

T1 sequence (P27958 1027-1208): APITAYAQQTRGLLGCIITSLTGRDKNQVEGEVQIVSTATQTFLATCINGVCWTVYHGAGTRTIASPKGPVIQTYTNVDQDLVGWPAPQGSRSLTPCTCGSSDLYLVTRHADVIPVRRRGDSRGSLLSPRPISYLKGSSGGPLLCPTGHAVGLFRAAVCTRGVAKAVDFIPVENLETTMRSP

| Compound | CC50 (in vitro) | IC50 (HCV NS3-NS4A protease) | EC50 [1] |
| --- | --- | --- | --- |
| COc1ccc2c(O[C@H]3CCN4C(=O)N(C)CCCC/C=C\[C@@H]5C[C@@]5(C(=O)NS(=O)(=O)C5CC5)NC(=O)[C@@H]4C3)cc(-c3nc(C(F)(F)F)cs3)nc2c1C [Compound 51, 1-cyclopropanesulfonic acid{(Z)-(1S,4R,6S,18S)-18-[7-methoxy-8-methyl-2-(4-trifluoromethyl-thiazol-2-yl)-quinolin-4-yloxy]-13-methyl-2,14-dioxo-3,13,15-triaza-tricyclo[13.4.0.0*4,6*]nonadec-7-ene-4-carbonyl}amide] | 10 to 75 µM | < 1000 nM | < 1000 nM |
| COc1ccc2c(O[C@H]3CCN4C(=O)N(C)CCOC/C=C\[C@@H]5C[C@@]5(C(=O)NS(=O)(=O)C5(C)CC5)NC(=O)[C@@H]4C3)cc(-c3nc(C(F)(F)F)cs3)nc2c1C [Compound 54] | > 75 µM | < 1000 nM | 1000 to 10000 nM |
| C#Cc1csc(-c2cc(O[C@H]3CCN4C(=O)N(C)CCCC/C=C\[C@@H]5C[C@@]5(C(=O)NS(=O)(=O)C5(C)CC5)NC(=O)[C@@H]4C3)c3ccc(OC)c(C)c3n2)n1 [Compound 55, 1-methyl-cycloprpoanesulfonic acid{(Z)-(1S,4R,6S,18S)-18-[2-(4-ethynyl-thiazol-2-yl)-7-methoxy-8-methyl-quinolin-4-yl-oxy]-13-methyl-2,14-dioxo-3,13,15-triaza-tricyclo[13.4.0.0*4,6*]nonadec-7-ene-4-carbonyl}-amide] | 10 to 75 µM | < 1000 nM | < 1000 nM |
| COc1ccc2c(O[C@H]3CCN4C(=O)N(C)CCCC/C=C\[C@@H]5C[C@@]5(C(=O)NS(=O)(=O)C5(C)CC5)NC(=O)[C@@H]4C3)nc(-c3ccc(F)cc3)nc2c1C [Compound 56] | > 75 µM | < 1000 nM | < 1000 nM |
| COc1ccc2c(O[C@H]3CCN4C(=O)N(C)CCCC/C=C\[C@@H]5C[C@@]5(C(=O)NS(=O)(=O)C5(C)CC5)NC(=O)[C@@H]4C3)nc(-c3nc(C(F)(F)F)cs3)nc2c1C [Compound 57, 1-methyl-cyclopropanesulfonic acid {(Z)-(1S,4R,6S,18S)-18-[7-methoxy-8-methyl-2-(4-trifluoromethyl-thiazol-2-yl)quinazolin-4-yloxy]-13-methyl-2,14-dioxo-3,13,15-triaza-tricyclo[13.4.0.0*4,6*]nonadec-7-ene-4-carbonyl}-amide] | 10 to 75 µM | < 1000 nM | < 1000 nM |
| COc1ccc2c(O[C@H]3CCN4C(=O)CCCCC/C=C\[C@@H]5C[C@@]5(C(=O)NS(=O)(=O)C5CC5)NC(=O)[C@@H]4C3)cc(-c3nc(C(F)(F)F)cs3)nc2c1C [Compound 58] | 10 to 75 µM | < 1000 nM | < 1000 nM |
